# According to patent US12031137B2, “Compositions comprising SASP modulators and senescence attenuators and uses thereof for modulating cellular senescence” (RSEM, LIMITED PARTNERSHIP, priority 2016, dated 2024):
# T1: human VEGF165 (Homo sapiens, UniProt P15692)
# T1 construct: made in house; host or cells: HEK293T
# T1 sequence (P15692 27-191 isoform P15692-4): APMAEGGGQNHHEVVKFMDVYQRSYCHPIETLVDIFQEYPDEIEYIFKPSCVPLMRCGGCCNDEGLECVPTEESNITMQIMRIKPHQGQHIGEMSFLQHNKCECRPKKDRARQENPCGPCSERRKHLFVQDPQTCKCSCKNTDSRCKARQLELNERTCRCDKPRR
# B1: Trap M: NRP1 trap a1a2-b1, aa about 22-424; SEQ ID NOs 81/82 (protein)
# chain: FRNDKCGDTIKIESPGYLTSPGYPHSYHPSEKCEWLIQAPDPYQRIMINFNPHFDLEDRDCKYDYVEVFDGENENGHFRGKFCGKIAPPPVVSSGPFLFIKFVSDYETHGAGFSIRYELFKRGPECSQNYTTPSGVIKSPGFPEKYPNSLECTYIVFAPKMSEIILEFESFDLEPDSNPPGGMFCRYDRLEIWDGFPDVGPHIGRYCGQKTPGRIRSSSGILSMVFYTDSAIAKEGFSANYSVLQSSVSEDFKCMEALGMESGEIHSDQITASSQYSTNWSAERSRLNYPENGWTPGEDSYREWIQVDLGLLRFVTAVGTQGAISKETKKKYYVKTYKIDVSSNGEDWITIKEGNKPVLFQGNTNPTDVVVAVFPKPLITRFVRIKPATWETGISMRFEVYGCRSGSKENLYFQG
# Columns and labels:
# [1] = tested on: mouse model of oxygen-induced retinopathy (OIR); test: SA-β-gal staining of retinas in oxygen-induced retinopathy (OIR) after intravitreal injection; assay type: in vivo; settings: single intravitreal injection at P12, vs vehicle
# Excerpt: (§1) O2-induced retinopathy. Mouse pups from different strains (C57Bl/6 WT, LyzM-Cre, LysM-Cre/IRE1^fl/fl, LysM-Cre/IRE1^+/+, IRE1^fl/fl and LysM-Cre/ROSA26EYFP^fl/fl), and their fostering mothers (CD1, Charles River) were exposed to 75% 02 from postnatal day 7 (P7) to day 12 and returned to room air. This model serves as a proxy to human ocular neovascular diseases such as ROP and diabetic retinopathy characterized by a late phase of destructive pathological angiogenesis (72, 73). Upon return to room air, hypoxia-driven neovascularization (NV) develops from P14 onwards (27). We enucleated eyes at different time points and dissected the retinas for mRNA, protein assays or flatmounting.
# Senescence-associated β-galactosidase (SA-β-gal) assay. Senescence-associated β-galactosidase assays were carried out as described previously (57, 75)
# Quantification of SA-β-gal in vivo. Senescence-associated β-galactosidase staining in flatmount retinas or sagittal eye sections were analyzed using Image J software as described in FIG. 14.
# (§2) Intravitreal injections. P2, P10 or P12 C57BL/6 pups were anesthetized with 3.0% isoflurane and injected in the vitreous chamber with 0.5 μL of lentivirus (see “Lentivirus production”), recombinant SEMA3A (100 ng/μL), metformin (10 μg/μL) or Aflibercept (10 μg/uL) using a 10-μL Hamilton syringe fitted with a […] glass capillary tip. Approximately 254±11.0 ng/μL of lentivirus Sh_GFP and 323.3±15.3 ng/μL containing Sh_Sema3a, Lv.Cre (15.0 ng/mL), Lv.GFP (15.0 ng/mL) was injected. Virus titers were assessed with the p24 ELISA kit (ZeptoMetrix). The titers of the lentiviruses used were (in ng p24) LV.Sh_RNA IRE1α (8.52 ng/mL), and LV.Sh_RNA.GFP (8.47 ng/mL).
# [2] = tested on: mouse model of oxygen-induced retinopathy (OIR); test: Avascular area and pre-retinal neovascularization in OIR flatmount retinas; assay type: in vivo
# [3] = tested on: mouse model of oxygen-induced retinopathy (OIR); test: Immunoblot and RT-qPCR of OIR retinas after intravitreal injection; assay type: in vivo; settings: intravitreal injection at P12, P14 OIR retinas
# Excerpt: as §1
# (§3) Semi-quantitative and Real-time PCR analysis. We isolated RNA using the GenElute™ Mammalian Total RNA Miniprep Kit (Sigma) and performed a digestion with DNase I to prevent amplification of genomic DNA. We reversed transcribed the RNA using M-MLV reverse transcriptase and analyzed gene expression using SybrGreen™ in an ABI Biosystems Real-Time PCR machine. β-actin was used as a reference gene. […] We investigated the splicing of XBP-1 by incubating the XBP-1 semi-quantitative PCR product with 0.4 U/μL of PstI enzyme for 5 hrs at 37° C. followed by separation on 2.5% agarose gel.
# as §2
# (§4) Western blotting. We enucleated eyes at varying time points and rapidly dissected and homogenized retinas for assessment of retinal protein levels. Protein concentration from retinal homogenate and cell lysates were assessed by BCA assay (Sigma), and then 30 μg of protein analyzed for each condition by standard SDS-PAGE technique.
# [4] = target: T2, IRE1α's endoribonuclease activity (Mus musculus, UniProt Q9EQY0); test: SEMA3A-driven senescence in J774 cells with IRE1α RNase inhibitor; assay type: cell-based
# T2 construct: endogenous in cells; host or cells: J774 (J774A.1) mouse macrophage-like cells
# T2 sequence (Q9EQY0 21-977): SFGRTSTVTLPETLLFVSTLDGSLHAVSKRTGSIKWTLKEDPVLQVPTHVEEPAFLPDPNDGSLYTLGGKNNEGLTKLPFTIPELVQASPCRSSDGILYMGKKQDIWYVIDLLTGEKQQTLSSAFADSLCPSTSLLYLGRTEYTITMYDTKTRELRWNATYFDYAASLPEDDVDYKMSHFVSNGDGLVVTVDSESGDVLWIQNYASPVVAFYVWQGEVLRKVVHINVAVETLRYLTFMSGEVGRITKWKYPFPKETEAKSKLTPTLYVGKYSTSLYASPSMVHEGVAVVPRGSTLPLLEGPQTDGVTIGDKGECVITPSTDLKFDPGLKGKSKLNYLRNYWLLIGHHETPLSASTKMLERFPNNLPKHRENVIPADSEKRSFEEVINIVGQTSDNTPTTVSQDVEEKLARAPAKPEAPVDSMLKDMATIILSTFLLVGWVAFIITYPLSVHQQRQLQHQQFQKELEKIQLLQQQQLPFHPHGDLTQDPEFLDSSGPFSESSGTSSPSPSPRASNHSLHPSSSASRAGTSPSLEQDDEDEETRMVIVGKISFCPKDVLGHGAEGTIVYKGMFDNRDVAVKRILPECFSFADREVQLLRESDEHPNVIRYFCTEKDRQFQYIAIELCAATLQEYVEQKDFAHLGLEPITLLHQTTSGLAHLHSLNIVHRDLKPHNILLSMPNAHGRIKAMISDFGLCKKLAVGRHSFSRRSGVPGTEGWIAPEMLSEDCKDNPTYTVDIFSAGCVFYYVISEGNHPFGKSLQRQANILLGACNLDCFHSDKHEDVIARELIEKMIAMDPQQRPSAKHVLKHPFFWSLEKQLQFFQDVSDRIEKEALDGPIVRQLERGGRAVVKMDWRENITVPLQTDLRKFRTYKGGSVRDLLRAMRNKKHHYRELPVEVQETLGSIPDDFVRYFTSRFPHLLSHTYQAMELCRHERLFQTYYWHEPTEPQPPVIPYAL
# Description: FIG. 7C: Representative confocal immunofluorescence staining of γH2AX and DAPI of J774 macrophages stimulated with SEMA3A (100 ng/mL) or vehicle for 7 days (Scale bars are 100 μm). Higher magnification views of the outlined areas are shown (Scale bars are 50 μm). Immunoblots (FIG. 7D) for the XBP1(s) (spliced isoform) and PCR (FIG. 7E) for XBP1(s) and unspliced XBP1 (u) in J774 cell lysates treated with vehicle, S3A (100 ng/ml) and/or 4μ8c (1 ng/ml) at day 7 post-treatment. FIG. 7F: RT-qPCR for levels of Pai1, II6, II1β, Tgf-β1, Tp53, Ire1α and Tnfα in J774 stimulated with SEMA3A alone or with 4μ8c. β-actin was used as a reference gene. ***P<0.0001, *P<0.005. Scale bars: 100 μm for C & G. High mag C is 50 μm. Data are presented as mean±SEM;
# To determine whether SEMA3A-driven senescence was occurring through IRE1α's kinase or RNAse activity, the selective cell-permeable coumarin o-hydroxyaldehyde pharmacological inhibitor of IRE1α's endoribonuclease activity, 4μ8c, was used. Exposure to 4μ8c (FIG. 7D) prevented SEMA3A-induced growth arrest and abrogated SEMA3A-induced senescence (data not shown). […] Ultimately, pharmacological inhibition of the endoribonuclease activity of IRE1α inhibited production of specific senescence-associated genes Vegf-a, Tgf-β1, II-1β, II-6, Pai-1, Tp53 while there is no effect on Tnf-α or IRE1α itself (FIG. 7F).
# as §3, §4
# [5] = tested on: SEMA3A-FC; test: Sema 3A binding assay on plate-coated purified traps (saturation curves, KD); settings: for Binding to SEMA3A: Table 2, Yes/No
# In short: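 Purified traps coated on plates and blocked with PBS/2% casein/0.05% Tween 20; SEMA3A-FC titrated over a wide concentration range, incubated overnight. Bound ligand detected with HRP anti-human IgG and ECL chemiluminescence; KD from non-linear fit of saturation curves.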
# [6] = target: T1, human VEGF165; test: AP-VEGF165 binding assay on plate-coated purified traps (saturation curves, KD); settings: AP-VEGF165 ligand, read-out: VEGF165 binding (dissociation constant)
# Description: Production of AP-VEGF165. the coding sequence of the human VEGF165 variant 1 (NM_001025366) was sub-cloned in the pAPtag5 vector (GenHunter), in-frame with an Alkaline Phosphatase domain (AP-VEGF165). HEK293T cells were transfected with the AP-VEGF165 construct using a polyethylenimine (PEI) transfection method. Following the overnight transfection step, cells were cultured for an additional 60 hr in serum free media (In vitrogen). The cell media were collected and concentrated on a PES device (Pierce). The concentrated AP-VEGF165 ligand was analysed on PAGE-SDS and quantified using SimplyBlue safe stain (Life technologies).
# Sema 3A and AP-VEGF165 binding assays. Saturation curves for the determinations of KD of binding to SEMA 3A or VEGF165 were obtained as follow. Wells of high protein binding 96 well plates (Maxisorp, Nunc) were coated with purified traps diluted in PBS and blocked afterward with binding buffer (PBS containing 2% casein and 0.05% Tween 20). The SEMA3A-FC (R&D systems) or AP-VEGF165 ligands were diluted in binding buffer over an extensive range of concentrations and added to wells. Following an overnight incubation, wells were washed with PBS containing 0.05% tween. Bound SEMA3a-FC was detected using an HRP-linked anti-Human IgG (Biorad) and ECL substrate (Pierce). Alternatively, bound AP-VEGF165 was detected using CPD star substrate (Roche). The Chemiluminescent signal was acquired on a TECAN reader. Dissociation constant (KD) were determined by non-linear curve fitting using the Graph Pad prism software.
# The relative affinity of traps of the present invention to SEMA3A and VEGF has been assessed. Traps were prepared as described in Example 8.
# [7] = intravitreal injection at P12 of OIR
# [8] = J774 stimulated with SEMA3A alone or with 4μ8c
molecule,measurement,setting,value
Aflibercept: recombinant fusion protein made-up of the extracellular domains of human VEGF receptors 1 and 2 and an Fc portion,SA-β-gal staining at P14 OIR,[1],did not significantly influence
same,SA-β-gal staining at P17 OIR (cellular senescence),[1],did not significantly influence
same,pathological neovascularization at P17 OIR,"[2]; intravitreal injection at P12, vs vehicle",marked decrease
same,rates of vascular regeneration at P14,[2]; [7],does not modulate
same,rates of vascular regeneration at P17,[2]; [7],does not modulate
same,"drivers of senescence (Cdkn2a, Tp53, Il1β, Tgf-β1, Sema3a RT-qPCR)",[3],does not modulate
Cc1cc(=O)oc2c(C=O)c(O)ccc12 [Trap 4μ8c],SEMA3A-mediated splicing and activation of XBP1,"[4]; J774, S3A 100 ng/ml, 4μ8c 1 ng/ml, day 7",prevented
same,SEMA3A-induced growth arrest,"[4]; J774 cells, data not shown",prevented
same,SEMA3A-induced senescence,"[4]; J774 cells, data not shown",abrogated
same,Tnf-α or IRE1α expression (RT-qPCR),[4]; [8],no effect
same,"production of senescence-associated genes Vegf-a, Tgf-β1, Il-1β, Il-6, Pai-1, Tp53 (RT-qPCR)",[4]; [8],inhibited
"Trap G: NRP1 trap a1a2-b1b2-c, aa about 22-856; SEQ ID NOs 67/68",Binding to SEMA3A,[5],Yes
same,preference for SEMA3A over VEGF binding,[5]; in words,much less important
same,Kd,"[5]; traps coated on plate, overnight incubation, read-out: SEMA 3A-FC binding (dissociation constant)",0.8 nM
same,Kd,[6],6.75 nM
same,SA-β-gal staining at P17 OIR (cellular senescence),[1],significant attenuation
B1,Binding to SEMA3A,[5],Yes
same,kd for SEMA3A relative to VEGF,[5]; see Table 6,about 20 ×
same,Kd,[6],20.1 nM
same,SA-β-gal staining at P17 OIR (cellular senescence),[1],significant attenuation
